Assay results from patent US8734673B2, “Boron selective ionic liquids and polymeric ionic liquids, methods of making and methods of use thereof” (The University of Toledo, priority 2008, dated 2014).
Read-outs that look alike come from different tables or passages of the source.

Columns and labels:
[1] = Solvation interaction parameters by inverse gas-liquid chromatography (Abraham model); format: physicochemical
Method: The preparation of the capillary columns for inverse gas-liquid chromatographic analysis was performed using a previously described procedure. All capillary columns had efficiencies between 2100 to 2500 plates/meter. Characterization of the capillary columns and probe molecule descriptions are listed in supplemental information. Multiple linear regression analysis (MLRA) and statistical calculations were performed using the program Analyse-it (Microsoft, USA).
Solvation Characteristics. We have previously reported that the Abraham solvation model, a linear free energy approach that utilizes inverse gas-liquid chromatography to describe the solvation properties of a liquid, can be used to characterize room temperature ionic liquids. Described by equation 1, the model provides the so-called “interaction parameters” (r, s, a, b, l) by using multiple linear regression analysis to fit the retention factor (k, determined chromatographically) to the solute descriptors (R2, π2^Hα2H, β2^H, log L^16) for a wide variety of probe solute molecules. […]
Previously we characterized a large number of room temperature ionic liquids in terms of multiple solvation interactions using the solvation parameter model, shown in equation log k=c+rR2+sπ2^H+aα2^H+bβ2^H+l log L^16 [3] This approach utilizes inverse gas-liquid chromatography and allows the use of a large number of probe molecules to deconvolute solute retention in terms of the type and magnitude of individual solvation interactions. The solute descriptors (R2, π2^H, α2^H, .β2^H, log L^16) from Equation 3 are obtained from the literature for many probe molecules containing a variety of functional groups. The retention factor is determined chromatographically. The solute descriptors and retention factors are subjected to multiple linear regression analysis to obtain the interaction parameter coefficients (r, s, a, b, l), which ultimately characterize the stationary phase: r is the ability of the diionic liquid containing-stationary phase to interact with .π0 and n electrons of the solute, s is a measure of the dipolarity/polarizability of the diionic liquid containing-stationary phase, a defines the diionic liquid containing-stationary phase hydrogen bond basicity, b is a measure of the hydrogen bond acidity, and l refers to the ability of the diionic liquid containing-stationary phase to separate adjacent members of a homologous series.
Test solutes used to determine interaction parameters and solvation thermodynamics were dissolved in dichloromethane. […] Split injection and flame ionization detection were utilized with injection and detection temperatures of 250° C. Helium was used as the carrier gas with a column inlet pressure of 3.1 psi and flow rate of 1.0 mL/min. Methane was used to determine the dead volume of the column. Multiple linear regression analysis and statistical calculations were performed using the program Analyze-it (Microsoft).

[2] = Miscibility/solubility in heptane and water
Text: The miscibility/solubility of all ionic liquids in both heptane and water are indicated as well.
The solubility behavior of all thirty-nine geminal dicationic ionic liquids in water and heptane also was explored.

[3] = values taken from reference 31, cited from earlier work

Molecule	Interaction parameter a (hydrogen bond basicity) ([1]; 40° C.)	Interaction parameter b (hydrogen bond acidity) ([1]; 40° C.)	Interaction parameter c ([1]; 40° C.)	Interaction parameter l (dispersion forces) ([1]; 40° C.)	Interaction parameter r (interaction via nonbonding and π-electrons) ([1]; 40° C.)	Interaction parameter s (dipolarity/polarizability) ([1]; 40° C.)	Interaction parameter a (hydrogen bond basicity) ([1]; 70° C.)	Interaction parameter b (hydrogen bond acidity) ([1]; 70° C.)	Interaction parameter c ([1]; 70° C.)	Interaction parameter l (dispersion forces) ([1]; 70° C.)	Interaction parameter r (interaction via nonbonding and π-electrons) ([1]; 70° C.)	Interaction parameter s (dipolarity/polarizability) ([1]; 70° C.)	Interaction parameter a (hydrogen bond basicity) ([1]; 100° C.)	Interaction parameter b (hydrogen bond acidity) ([1]; 100° C.)	Interaction parameter c ([1]; 100° C.)	Interaction parameter l (dispersion forces) ([1]; 100° C.)	Interaction parameter r (interaction via nonbonding and π-electrons) ([1]; 100° C.)	Interaction parameter s (dipolarity/polarizability) ([1]; 100° C.)	Miscibility with Heptane [2]	Miscibility with Water [2]	further results
Cn1cc[n+](CCCCCCCCC[n+]2ccn(C)c2)c1.O=S(=O)([N-]S(=O)(=O)C(F)(F)F)C(F)(F)F.O=S(=O)([N-]S(=O)(=O)C(F)(F)F)C(F)(F)F [C9(mim)2-NTf2, 1,9-di(3-methylimidazolium)nonane di-bis[(trifluoromethyl)sulfonyl]imidate]	1.83	0.47	−2.86	0.62	0.16	1.81	1.75	0.20	−2.95	0.51	0.11	1.76	1.50	0.15	−3.06	0.43	0.11	1.64	–	–	–
Cn1cc[n+](CCC[n+]2ccn(C)c2)c1.[Br-].[Br-] [C3(mim)2-Br, 1,3-di(3-methylimidazolium)propane di-bromide]	–	–	–	–	–	–	–	–	–	–	–	–	–	–	–	–	–	–	Immiscible	Miscible	–
CCCCn1cc[n+](C)c1.O=S(=O)([N-]S(=O)(=O)C(F)(F)F)C(F)(F)F [BMIM-NTf2, 1-butyl-3-methylimidazolium bis[(trifluoromethylsulfonyl)imide], reference compound]	2.02	0.36	−2.87	0.63	0	1.89	1.75	0.38	−3.03	0.56	0	1.67	1.55	0.24	−3.13	0.49	0	1.60	–	–	–
CCCC[N+]1(C)CCCC1.O=S(=O)([N-]S(=O)(=O)C(F)(F)F)C(F)(F)F [BMPY-NTf2, 1-butyl-1-methylpyrrolidinium bis[(trifluoromethylsulfonyl)imide]]	–	–	–	–	–	–	–	–	–	–	–	–	–	–	–	–	–	–	–	–	Interaction parameter a (hydrogen bond basicity) ([3]; 40° C.): 2.08; Interaction parameter b (hydrogen bond acidity) ([3]; 40° C.): 0.16; Interaction parameter c ([3]; 40° C.): −2.78; Interaction parameter l (dispersion forces) ([3]; 40° C.): 0.68; Interaction parameter r (interaction via nonbonding and π-electrons) ([3]; 40° C.): 0; Interaction parameter s (dipolarity/polarizability) ([3]; 40° C.): 1.69; Interaction parameter a (hydrogen bond basicity) ([3]; 70° C.): 1.78; Interaction parameter b (hydrogen bond acidity) ([3]; 70° C.): 0; Interaction parameter c ([3]; 70° C.): −2.80; Interaction parameter l (dispersion forces) ([3]; 70° C.): 0.56; Interaction parameter r (interaction via nonbonding and π-electrons) ([3]; 70° C.): 0; Interaction parameter s (dipolarity/polarizability) ([3]; 70° C.): 1.53; Interaction parameter a (hydrogen bond basicity) ([3]; 100° C.): 1.55; Interaction parameter b (hydrogen bond acidity) ([3]; 100° C.): 0; Interaction parameter c ([3]; 100° C.): −2.92; Interaction parameter l (dispersion forces) ([3]; 100° C.): 0.48; Interaction parameter r (interaction via nonbonding and π-electrons) ([3]; 100° C.): 0; Interaction parameter s (dipolarity/polarizability) ([3]; 100° C.): 1.44
C[n+]1ccn(CCCCn2cc[n+](C)c2)c1.O=S(=O)([N-]S(=O)(=O)C(F)(F)F)C(F)(F)F.O=S(=O)([N-]S(=O)(=O)C(F)(F)F)C(F)(F)F [C4(mim)2-NTf2]	2.11	0.50	−2.94	0.56	0.25	2.01	1.77	0.45	−2.91	0.44	0.22	1.78	1.57	0.33	−3.06	0.37	0.20	1.69	–	–	–
Cn1cc[n+](CCC[n+]2ccn(C)c2)c1.F[P-](F)(F)(F)(F)F.F[P-](F)(F)(F)(F)F [C3(mim)2-PF6, 1,3-di(3-methylimidazolium)propane di-hexafluorophosphate]	–	–	–	–	–	–	–	–	–	–	–	–	–	–	–	–	–	–	Immiscible	Immiscible	–
Cn1cc[n+](CCC[n+]2ccn(C)c2)c1.F[B-](F)(F)F.F[B-](F)(F)F [C3(mim)2-BF4, 1,3-di(3-methylimidazolium)propane di-tetrafluoroborate]	–	–	–	–	–	–	–	–	–	–	–	–	–	–	–	–	–	–	Immiscible	Miscible	–
O=S(=O)([N-]S(=O)(=O)C(F)(F)F)C(F)(F)F.O=S(=O)([N-]S(=O)(=O)C(F)(F)F)C(F)(F)F.c1ccc(Cn2cc[n+](CCCCCCCCCCCC[n+]3ccn(Cc4ccccc4)c3)c2)cc1 [C12(benzim)2-NTf2, 1,12-di(3-benzylimidazolium)dodecane di-bis[(trifluoromethyl)sulfonyl]imidate]	1.96	0.84	−2.94	0.66	0.11	1.65	1.75	0.57	−3.07	0.56	0.07	1.62	1.44	0.52	−3.12	0.46	0	1.47	–	–	–
C[N+]1(CCC[N+]2(C)CCCC2)CCCC1.F[P-](F)(F)(F)(F)F.F[P-](F)(F)(F)(F)F [C3(mpy)2-PF6, 1,3-di(methylpyrrolidinium)propane di-hexafluorophosphate]	–	–	–	–	–	–	–	–	–	–	–	–	–	–	–	–	–	–	Immiscible	Immiscible	–
[Br-].[Br-].c1ccc(Cn2cc[n+](CCCCCCCCCCCC[n+]3ccn(Cc4ccccc4)c3)c2)cc1 [C12(benzim)2-Br, 1,12-di(3-benzylimidazolium)dodecane di-bromide]	–	–	–	–	–	–	–	–	–	–	–	–	–	–	–	–	–	–	–	–	Miscibility with Water ([2]; listed as 28): insoluble in water
1,3-di(2,3-dimethylimidaolium)propane di-bromide [C3(m2im)2-Br]	–	–	–	–	–	–	–	–	–	–	–	–	–	–	–	–	–	–	Immiscible	Miscible	–
1,3-di(2,3-dimethylimidazolium)propane di-hexafluorophosphate [C3(m2im)2-PF6]	–	–	–	–	–	–	–	–	–	–	–	–	–	–	–	–	–	–	Immiscible	Immiscible	–
